In patent US11406707B2, “STAT3 phosphorylation during graft-versus-host disease” (H. LEE MOFFITT CANCER CENTER AND RESEARCH INSTITUTE, INC., priority 2014, dated 2022):

Key:
STAT3 Y705 = target: T1, STAT3 Y705 (Homo sapiens, UniProt P40763); assay: IL-6-STAT3 Y705 phosphorylation in DC-allostimulated donor T-cells; assay type: cell-based; conditions: S3I-201 50 uM, 4 hours, IL-6 pulse
T1 construct: endogenous in cells; host or cells: primary human T cells from healthy-donor PBMC, allostimulated by monocyte-derived dendritic cells
T1 sequence (P40763 whole entry): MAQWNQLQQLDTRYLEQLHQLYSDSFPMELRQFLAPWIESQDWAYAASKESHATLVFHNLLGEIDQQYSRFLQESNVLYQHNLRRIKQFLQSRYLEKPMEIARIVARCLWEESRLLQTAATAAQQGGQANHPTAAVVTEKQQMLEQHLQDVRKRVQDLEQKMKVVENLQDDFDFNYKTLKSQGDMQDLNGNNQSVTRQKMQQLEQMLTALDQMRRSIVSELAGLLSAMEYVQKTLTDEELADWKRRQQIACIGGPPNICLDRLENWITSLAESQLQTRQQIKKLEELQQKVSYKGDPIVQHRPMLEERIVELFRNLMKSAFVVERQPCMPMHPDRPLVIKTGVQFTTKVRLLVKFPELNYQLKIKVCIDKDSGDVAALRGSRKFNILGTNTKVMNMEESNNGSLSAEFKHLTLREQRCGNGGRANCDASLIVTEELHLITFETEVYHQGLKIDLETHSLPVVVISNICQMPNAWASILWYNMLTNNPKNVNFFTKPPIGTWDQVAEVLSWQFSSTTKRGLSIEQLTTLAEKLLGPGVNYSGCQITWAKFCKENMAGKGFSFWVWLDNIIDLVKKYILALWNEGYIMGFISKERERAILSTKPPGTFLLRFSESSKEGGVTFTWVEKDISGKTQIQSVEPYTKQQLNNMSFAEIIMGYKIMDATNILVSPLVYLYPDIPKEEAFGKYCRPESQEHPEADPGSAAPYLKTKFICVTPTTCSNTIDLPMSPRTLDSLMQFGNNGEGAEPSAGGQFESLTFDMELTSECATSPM
Protocol: (§1) T-cells were serum-starved in RPMI treated with DMSO diluent control, rapamycin 100 ng/ml (EMD Millipore, Billerica, Mass. USA), or STAT3 inhibitor S3I-201 50 uM (H. Lee Moffitt Cancer Center, Drug Discovery Core) for 4 hours. For the STAT3 experiments, the T-cells were first DC-allostimulated (DC:T-cell ratio of 1:30) for 3 days to optimize surface expression of IL-6 receptor alpha and STAT3 signaling among healthy volunteers. The T-cells were then cytokine-pulsed for 15 minutes with either IL-2 (R&D Systems) to activate the Akt-mTOR-S6 pathway, or IL-6 to stimulate STAT3 phosphorylation. The cells were then fixed and permeabilized as described, and then stained for CD3, CD4 (STAT3 experiments), phosphorylated STAT3 Y705, and phosphorylated S6.

S6 ribosomal protein = assay: Akt-mTOR-S6 signaling in IL-2-stimulated donor T-cells; assay type: cell-based, human; conditions: S3I-201 50 uM, 4 hours, IL-2 pulse
Protocol: as §1

[1] = S3I-201 treatment of GVHD in vivo (B6 marrow +/- T-cells into Balb/c mice)
Source text: (§2) FIG. 7. B6 T-cell depleted marrow (+/− T-cells) were given to Balb/c mice. S3I-201 or vehicle was given by i.p. from day 0 to day +7 only. Mice were then followed for body weight (FIG. 7B), GVHD clinical scores (FIGS. 7C, 7D), and survival (FIG. 7A).
as §2, with “B6” for “FIG. 7. B6”, “7A). […] All of the GVHD control mice (i.e., TCD marrow+T-cells+vehicle) have since died of GVHD.” for “7A).”

STAT5 = assay: IL-2-pulsed STAT5 phosphorylation in alloactivated T cells (flow cytometry); assay type: cell-based, human
Protocol: The 3-day exposure to allogenic moDCs allows the responding T cells to increase CD25 expression and capacity to receive IL-2 signaling, while resting or stimulated T cells phosphorylate STAT3 in response to IL-6 [Betts, B. C., et al. (2011) Blood 118, 5330-5339]. […] T-cell STAT phosphorylation was determined by surface staining for CD3, followed by fixation (CytoFix; […] The percentage of STAT3 and bright STAT5 phosphorylation in the T cells is depicted by the gates in each respective histogram (FIG. 1C, D).

Foxp3 TSDR = assay: iTreg Foxp3 demethylation assay; assay type: cell-based, human; conditions: S3I-201 50 or 100 μM
Source text: iTreg Foxp3 demethylation assay. […] (2013) J. Immunol. 190, 3180-3188; Miyao, T., et al. (2012) Immunity 36, 262-275]. The degree of Foxp3 TSDR demethylation among iTregs from DMSO-treated allo-MLRs, purified nTregs, and Tconvs served as the controls [[…]., et al. (2013) Blood 122(13):2251-61]. For these experiments, iTregs and nTregs were sorted to select the CD4^+ CD25^+ CD127^- population. PCR products were amplified by using methylation or demethylation specific TSDR forward and reverse primers from bisulphate-treated genomic DNA of sorted natural Tregs. DNA fragments were cloned into a pCR2.1-Topo vector (Life Technologies, Grand Island, N.Y., USA) and verified by DNA sequencing. The following TSDR primers and probes were used for PCR: methylation forward [NT] ID NO:1), reverse [NT] ID NO:2), and hydrolysis probe [NT] (SEQ ID NO:3); and demethylation forward [NT] ID NO:4), reverse [NT] ID NO:5), and hydrolysis probe [NT] ID NO:6). Standards were diluted at concentrations ranging from 2^7 to 2^3 plasmid copies of each methylation or demethylation TSDR. Genomic DNA was isolated by using the DNeasy Blood and Tissue kit (Qiagen, Valencia, Calif., USA) from sorted natural or expanded iTregs. Genomic DNA (200-500 ng) was treated with bisulfite from the EZ DNA Methylation-Gold Kit (Zymo Research, Irvine, Calif., USA). […]

RORgammaT = RORgammaT expression by RT-PCR in allostimulated CD4+ T-cells; assay type: cell-based, human; conditions: S3I-201 alone, 5 days
Protocol: To optimize the detection of RORgammaT expression, CD4+ T-cells were isolated by magnetic bead negative selection (Miltenyi Biotec, Auburn, Calif. USA). […] (2011) Blood 118:5330-9; Betts, B C, et al. (2013) J Leukoc Biol. 2014 95(2):205-13; Betts, B C, et al. (2011) Blood 118:5340-3]. […] After the 5 day culture, the T-cells were harvested. Total RNA was extracted using TRIZOL (Life Technologies) according to manufacturer instructions. […] RT-PCR was carried out on an ABI 7900 instrument (Applied Biosystems) and performed [Ratajewski, M, et al. (2012) J Immunol 189:3034-42] with some modification using SYBR® Green PCR Master Mix (Life Technologies) as follows: 10 minutes at 95° C. and then 45 cycles each at 95° C. for 15 seconds, 59° C. for 45 seconds, and 72° C. for 10 seconds. The following primers were used: RORgammaT forward [NT] ID NO:7) and reverse […] NO:8); GAPDH forward [NT] ID NO:9) and reverse [NT] ID NO:10). PCR product purity was assessed by dissociation curves. The differences in gene expression were calculated by 2-ΔΔCt in triplicate. Data were normalized to GAPDH expression.

CD8+ T cells = assay: Evaluation of CD8 CTL capacity (CD107a, IFN-γ); assay type: cell-based, human; conditions: S3I-201 50 or 100 μM, day 5
Protocol: The naive CD8^+ T cells were purified by live cell sorting (CD4^− and CD45RO/CD25^−) and were stimulated with allogeneic moDCs (DC:T cell ratio of 1:30), with S3I-201 (50 or 100 μM) or DMSO added once on day 0. On day 5, the allosensitized CD8 T cells were harvested and stimulated with PMA/ionomycin in the presence of Golgi Stop and anti-CD107a, followed by surface CD8 and intracellular IFN-γ staining.

Cc1ccc(S(=O)(=O)OCC(=O)Nc2ccc(C(=O)O)c(O)c2)cc1 [S3I-201]
IL-6-mediated STAT3 phosphorylation of Y705 (STAT3 Y705): significantly decreased
S6 activation (S6 ribosomal protein): modestly reduced
tolerability ([1]; 2.5 mg/kg i.p. day 0 to day +7): well tolerated
tolerability ([1]; 5 mg/kg i.p. day 0 to day +7): toxic
survival ([1]; S3I-201 i.p. day 0 to day +7, GVHD control mice all died): alive at day +53
off-target effect on IL-2/STAT5 phosphorylation (geometric MFI ratio, percentage) (STAT5; S3I-201 100 μM vs DMSO): decrease in IL-2/STAT5 phosphorylation
IL-2-induced STAT5 phosphorylation (STAT5; S3I-201 50 or 100 μM, 15 min IL-2 pulse, vs unstimulated baseline): occurred in all treated T cells
iTreg Foxp3 demethylation compared with DMSO (Foxp3 TSDR): significantly enhanced
RORgammaT expression compared with DMSO (RORgammaT): significant suppression
CTL potential vs DMSO control (CD8+ T cells): not significantly different
cytolytic potential by CD107a expression and intracellular IFN-γ production (CD8+ T cells): intact cytolytic potential
